{"source": "patent US20110053916A1", "about": "(Vertex Pharmaceuticals Incorporated, priority 2009, published 2011)", "data": [{"target": "T1, PknB (Mycobacterium tuberculosis, UniProt P9WI81)", "T1 construct": "made in house", "T1 sequence (P9WI81 whole entry)": "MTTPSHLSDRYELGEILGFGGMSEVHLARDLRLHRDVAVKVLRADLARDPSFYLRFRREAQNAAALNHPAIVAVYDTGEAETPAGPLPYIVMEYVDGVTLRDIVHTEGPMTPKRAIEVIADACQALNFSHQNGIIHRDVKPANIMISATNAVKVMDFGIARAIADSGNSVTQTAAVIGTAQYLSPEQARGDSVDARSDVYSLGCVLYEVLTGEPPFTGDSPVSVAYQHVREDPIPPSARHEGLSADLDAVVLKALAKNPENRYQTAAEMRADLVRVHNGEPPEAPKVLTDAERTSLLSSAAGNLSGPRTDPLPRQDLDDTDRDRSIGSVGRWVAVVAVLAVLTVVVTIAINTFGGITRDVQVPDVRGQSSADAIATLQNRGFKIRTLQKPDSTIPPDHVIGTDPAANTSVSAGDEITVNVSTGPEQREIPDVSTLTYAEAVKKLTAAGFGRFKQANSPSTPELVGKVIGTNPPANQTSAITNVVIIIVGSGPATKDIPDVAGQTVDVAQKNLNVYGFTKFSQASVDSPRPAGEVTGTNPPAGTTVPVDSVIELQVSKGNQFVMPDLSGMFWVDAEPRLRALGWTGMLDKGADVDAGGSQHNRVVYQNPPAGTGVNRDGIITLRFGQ", "experiment": "biochemical", "parameters": "species or system M. tuberculosis", "conditions": "3 nM PknB, 6 uM GarA, 3 μM ATP, 30 min; competitive tight-binding fit; several symbols in a cell = repeat determinations", "values": [{"compound": "CCc1cnc(N2CCC(N3CCCCC3)CC2)nc1Nc1cc(C2CC2)[nH]n1", "note": "[Compound 44, N-(5-cyclopropyl-1H-pyrazol-3-yl)-5-ethyl-2-[4-(1-piperidyl)-1-piperidyl]-pyrimidin-4-amine]", "Ki Values": "C, D"}, {"compound": "CCc1cnc(N2CCCCC2)nc1Nc1cc(C2CC2)[nH]n1", "note": "[Compound 45, N-(5-cyclopropyl-1H-pyrazol-3-yl)-5-ethyl-2-(1-piperidyl)pyrimidin-4-amine]", "Ki Values": "C, D"}, {"compound": "NS(=O)(=O)c1cc(-c2ncc(Cl)c(Nc3cc(C4CC4)[nH]n3)n2)ccc1Cl", "note": "[Compound 58, 2-chloro-5-[5-chloro-4-[(5-cyclopropyl-1H-pyrazol-3-yl)amino]-pyrimidin-2-yl]-benzenesulfonamide]", "Ki Values": "B, C, C"}, {"compound": "N#CCc1ccc(Nc2ncc(Cl)c(Nc3cc(C4CC4)[nH]n3)n2)cc1", "note": "[Compound 59, 2-[4-[[5-chloro-4-[(5-cyclopropyl-1H-pyrazol-3-yl)amino]-pyrimidin-2-yl]amino]phenyl]acetonitrile]", "Ki Values": "B**, B*, B*"}, {"compound": "NC(=O)c1ccc(Nc2nccc(Nc3cc(C4CC4)n[nH]3)n2)cc1", "note": "[Compound 60, 4-[[4-[(5-cyclopropyl-2H-pyrazol-3-yl)amino]pyrimidin-2-yl]amino]benzamide]", "Ki Values": "C, C, D"}, {"compound": "O=S(=O)(NCCO)c1ccc(-c2ncc(Cl)c(Nc3cc(C4CC4)[nH]n3)n2)cc1", "note": "[Compound 61, 4-[5-chloro-4-[(5-cyclopropyl-1H-pyrazol-3-yl)amino]-pyrimidin-2-yl]-N-(2-hydroxyethyl)benzenesulfonamide]", "Ki Values": "A, C, D"}, {"compound": "c1cc(Nc2cc(C3CC3)[nH]n2)nc(N2CCCCC2)n1", "note": "[Compound 64, N-(5-cyclopropyl-1H-pyrazol-3-yl)-2-(1-piperidyl)pyrimidin-4-amine]", "Ki Values": "A*, B**"}, {"compound": "c1cc(Nc2cc(C3CC3)[nH]n2)nc(N2CCC(N3CCCCC3)CC2)n1", "note": "[Compound 65, N-(5-cyclopropyl-1H-pyrazol-3-yl)-2-[4-(1-piperidyl)-1-piperidyl]-pyrimidin-4-amine]", "Ki Values": "C, D, D"}, {"compound": "COc1cnc(N2CCCCC2)nc1Nc1cc(C2CC2)[nH]n1", "note": "[Compound 68, N-(5-cyclopropyl-1H-pyrazol-3-yl)-5-methoxy-2-(1-piperidyl)pyrimidin-4-amine]", "Ki Values": "A, B**"}, {"compound": "CC(C)(O)c1ccc(-c2ncc(Cl)c(Nc3cc(C4CC4)[nH]n3)n2)s1", "note": "[Compound 87, 2-(5-(5-chloro-4-(5-cyclopropyl-1H-pyrazol-3-ylamino)pyrimidin-2-yl)thiophen-2-yl)propan-2-ol]", "Ki Values": "A**, A*"}, {"compound": "O=S(=O)(NCCO)c1cccc(-c2ncc(Cl)c(Nc3cc(C4CC4)[nH]n3)n2)c1", "note": "[Compound 95, 3-[5-chloro-4-[(5-cyclopropyl-1H-pyrazol-3-yl)amino]-pyrimidin-2-yl]-N-(2-hydroxyethyl)benzenesulfonamide]", "Ki Values": "A*, A"}, {"compound": "C#Cc1cnc(Nc2ccc(CC#N)cc2)nc1Nc1cc(C2CC2)[nH]n1", "note": "[Compound 101, 2-(4-(4-(5-Cyclopropyl-1H-pyrazol-3-ylamino)-5-ethynylpyrimidin-2-ylamino)phenyl)acetonitrile]", "Ki Values": "A*, A*, A"}]}, {"target": "T1, PknB", "experiment": "biochemical", "parameters": "species or system M. tuberculosis", "conditions": "3 nM PknB, 6 uM GarA, 3 μM ATP, 30 min; competitive tight-binding fit; several symbols in a cell = repeat determinations; read-out: Ki Values", "units": {"Ki": "nM"}, "values": [{"compound": "COC/C=C/c1cnc(-c2ccccc2)nc1Nc1cc(C2CC2)[nH]n1", "note": "[Compound 39, (E)-N-(5-cyclopropyl-1H-pyrazol-3-yl)-5-(3-methoxyprop-1-enyl)-2-phenylpyrimidin-4-amine]", "Ki": "500 to 1000"}, {"compound": "Cc1cnc(-c2ccc(S(N)(=O)=O)s2)nc1Nc1cc(C2CC2)[nH]n1", "note": "[Compound 40, 5-(4-(5-cyclopropyl-1H-pyrazol-3-ylamino)-5-methylpyrimidin-2-yl)thiophene-2-sulfonamide]", "Ki": "1 to 10"}, {"compound": "NS(=O)(=O)c1ccc(-c2ncc(Cl)c(Nc3cc(C4CC4)[nH]n3)n2)s1", "note": "[Compound 42, 5-(5-chloro-4-(5-cyclopropyl-1H-pyrazol-3-ylamino)pyrimidin-2-yl)thiophene-2-sulfonamide]", "Ki": "1 to 10"}, {"compound": "CCc1cnc(N2CCN(C)CC2)nc1Nc1cc(C2CC2)[nH]n1", "note": "[Compound 46, N-(5-cyclopropyl-1H-pyrazol-3-yl)-5-ethyl-2-(4-methylpiperazin-1-yl)-pyrimidin-4-amine]", "Ki": "> 4000"}, {"compound": "CN1CCN(c2nccc(Nc3cc(C4CC4)[nH]n3)n2)CC1", "note": "[Compound 47, N-(5-cyclopropyl-1H-pyrazol-3-yl)-2-(4-methylpiperazin-1-yl)-pyrimidin-4-amine]", "Ki": "> 4000"}, {"compound": "CNS(=O)(=O)c1ccc(-c2nccc(Nc3cc(C4CC4)[nH]n3)n2)s1", "note": "[Compound 48]", "Ki": "1 to 10"}, {"compound": "COC(=O)CC1c2cnc(-c3ccccc3)nc2Nc2cc(C3CC3)nn21", "note": "(centres unmarked) [Compound 49, methyl 2-(cyclopropyl-phenyl-BLAHyl)acetate]", "Ki": "> 4000"}, {"compound": "NS(=O)(=O)c1ccc(-c2nccc(Nc3cc(C4CC4)[nH]n3)n2)s1", "note": "[Compound 50, 5-(4-(5-cyclopropyl-1H-pyrazol-3-ylamino)pyrimidin-2-yl)thiophene-2-sulfonamide]", "Ki": "1 to 10"}, {"compound": "NS(=O)(=O)c1ccc(-c2ncc(F)c(Nc3cc(C4CC4)[nH]n3)n2)s1", "note": "[Compound 52, 5-(4-(5-cyclopropyl-1H-pyrazol-3-ylamino)-5-fluoropyrimidin-2-yl)thiophene-2-sulfonamide]", "Ki": "1 to 10"}, {"compound": "NS(=O)(=O)C/C=C/c1nccc(Nc2cc(C3CC3)[nH]n2)n1", "note": "[Compound 54, 3-[4-[(5-cyclopropyl-1H-pyrazol-3-yl)amino]pyrimidin-2-yl]prop-2-ene-1-sulfonamide]", "Ki": "1000 to 2000"}, {"compound": "Oc1cnc(-c2ccccc2)nc1Nc1cc(C2CC2)[nH]n1", "note": "[Compound 55, 4-(5-cyclopropyl-1H-pyrazol-3-ylamino)-2-phenylpyrimidin-5-ol]", "Ki": "1000 to 2000"}, {"compound": "CC(C)(C)NS(=O)(=O)C/C=C/c1nccc(Nc2cc(C3CC3)[nH]n2)n1", "note": "[Compound 56, 3-[4-[(5-cyclopropyl-1H-pyrazol-3-yl)amino]pyrimidin-2-yl]-N-tert-butyl-prop-2-ene-1-sulfonamide]", "Ki": "1000 to 2000"}, {"compound": "O=C(O)c1ccc(Nc2nccc(Nc3cc(C4CC4)n[nH]3)n2)cc1", "note": "[Compound 57, 4-[[4-[(5-cyclopropyl-2H-pyrazol-3-yl)amino]pyrimidin-2-yl]amino]benzoic acid]", "Ki": "100 to 500"}, {"compound": "Clc1cnc(Nc2ccc3[nH]ncc3c2)nc1Nc1cc(C2CC2)[nH]n1", "note": "[Compound 62, 5-chloro-N4-(5-cyclopropyl-1H-pyrazol-3-yl)-N2-(1H-indazol-5-yl)pyrimidine-2,4-diamine]", "Ki": "> 4000"}, {"compound": "COCc1cnc(N2CCN(C)CC2)nc1Nc1cc(C2CC2)[nH]n1", "note": "[Compound 69, N-(5-cyclopropyl-1H-pyrazol-3-yl)-5-(methoxymethyl)-2-(4-methylpiperazin-1-yl)-pyrimidin-4-amine]", "Ki": "> 4000"}, {"compound": "COCc1cnc(N2CCCCC2)nc1Nc1cc(C2CC2)[nH]n1", "note": "[Compound 70, N-(5-cyclopropyl-1H-pyrazol-3-yl)-5-(methoxymethyl)-2-(1-piperidyl)pyrimidin-4-amine]", "Ki": "> 4000"}, {"compound": "COCc1cnc(N2CCC(N3CCCCC3)CC2)nc1Nc1cc(C2CC2)[nH]n1", "note": "[Compound 71, N-(5-cyclopropyl-1H-pyrazol-3-yl)-5-(methoxymethyl)-2-[4-(1-piperidyl)-1-piperidyl]-pyrimidin-4-amine]", "Ki": "1000 to 2000"}, {"compound": "CCCc1cnc(N2CCN(C)CC2)nc1Nc1cc(C2CC2)[nH]n1", "note": "[Compound 72, N-(5-cyclopropyl-1H-pyrazol-3-yl)-2-(4-methylpiperazin-1-yl)-5-propyl-pyrimidin-4-amine]", "Ki": "> 4000"}, {"compound": "O=C(O)c1cccc(Nc2ncc(Cl)c(Nc3cc(C4CC4)[nH]n3)n2)c1", "note": "[Compound 73, 3-[[5-chloro-4-[(5-cyclopropyl-1H-pyrazol-3-yl)amino]-pyrimidin-2-yl]amino]benzoic acid]", "Ki": "100 to 500"}, {"compound": "NCCNS(=O)(=O)c1ccc(-c2ncc(Cl)c(Nc3cc(C4CC4)[nH]n3)n2)s1", "note": "[Compound 75, N-(2-aminoethyl)-5-(5-chloro-4-(5-cyclopropyl-1H-pyrazol-3-ylamino)pyrimidin-2-yl)thiophene-2-sulfonamide]", "Ki": "1 to 10"}, {"compound": "Cc1cc(Nc2ccnc(Nc3ccc(S(N)(=O)=O)cc3)n2)[nH]n1", "note": "[Compound 76, 4-[[4-[(5-methyl-2H-pyrazol-3-yl)amino]pyrimidin-2-yl]amino]benzenesulfonamide]", "Ki": "10 to 50"}, {"compound": "NS(=O)(=O)c1cccc(Nc2nccc(Nc3cc(C4CC4)n[nH]3)n2)c1", "note": "[Compound 82]", "Ki": "50 to 100"}, {"compound": "N#Cc1ccc(Nc2ncc(Cl)c(Nc3cc(C4CC4)[nH]n3)n2)cc1", "note": "[Compound 84, 4-[[5-chloro-4-[(5-cyclopropyl-1H-pyrazol-3-yl)amino]-pyrimidin-2-yl]amino]benzonitrile]", "Ki": "10 to 50"}, {"compound": "C#Cc1cnc(-c2ccc(CC#N)cc2)nc1Nc1cc(C2CC2)[nH]n1", "note": "[Compound 85, 2-(4-(4-(5-cyclopropyl-1H-pyrazol-3-ylamino)-5-ethynylpyrimidin-2-yl)phenyl)acetonitrile]", "Ki": "10 to 50"}, {"compound": "N#Cc1cccc(Nc2ncc(Cl)c(Nc3cc(C4CC4)[nH]n3)n2)c1", "note": "[Compound 89, 3-[[5-chloro-4-[(5-cyclopropyl-1H-pyrazol-3-yl)amino]-pyrimidin-2-yl]amino]benzonitrile]", "Ki": "100 to 500"}, {"compound": "N#CCc1ccc(-c2ncc(N)c(Nc3cc(C4CC4)[nH]n3)n2)cc1", "note": "[Compound 92, 2-(4-(5-amino-4-(5-cyclopropyl-1H-pyrazol-3-ylamino)pyrimidin-2-yl)phenyl)acetonitrile]", "Ki": "10 to 50"}, {"compound": "CC(=O)NCCNS(=O)(=O)c1cccc(-c2ncc(Cl)c(Nc3cc(C4CC4)[nH]n3)n2)c1", "note": "[Compound 96, N-[2-[[3-[5-chloro-4-[(5-cyclopropyl-1H-pyrazol-3-yl)amino]-pyrimidin-2-yl]phenyl]sulfonylamino]ethyl]acetamide]", "Ki": "10 to 50"}, {"compound": "CN(C)CCNS(=O)(=O)c1cccc(-c2ncc(Cl)c(Nc3cc(C4CC4)[nH]n3)n2)c1", "note": "[Compound 97, 3-[5-chloro-4-[(5-cyclopropyl-1H-pyrazol-3-yl)amino]-pyrimidin-2-yl]-N-(2-dimethylaminoethyl)benzenesulfonamide]", "Ki": "10 to 50"}, {"compound": "Nc1cccc(Nc2nccc(Nc3cc(C4CC4)n[nH]3)n2)c1", "note": "[Compound 100, N-(3-aminophenyl)-N′-(5-cyclopropyl-2H-pyrazol-3-yl)-pyrimidine-2,4-diamine]", "Ki": "100 to 500"}]}]}
